Results published in patent US4472386A, “5-Fluoro-(β-uridine or 2'-deoxy-β-uridine) derivatives, a process for producing the same and a carcinostatic agent containing the same” (Toyama Chemical Co., Ltd., priority 1978, dated 1984).
Where two headings read alike, the source gives them in different places.

Tests used:
[1] = test system: Ehrlich ascites carcinoma; test: Inhibition of Ehrlich solid tumor in mice, oral administration starting six days after inoculation (Table 2); format: in vivo, ddY mice; details: for T/C (average tumor weight ratio between test group and control group): day 21
Procedure: (§1) 1. Experiment on the inhibition of Ehrlich solid tumor
Ehrlich ascites carcinoma was subcutaneously inoculated into the inguinal region of ddY mice (5 weeks old, male, 8 mice per group) with 3×10^6 cells per mouse. Six days after the inoculation, a test drug dissolved or suspended in 0.5% CMC solution was administered orally to the test group successively once daily for 10 days, while the same quantity as above of 0.5% CMC solution was orally administered to the control group. Twenty one days after the inoculation, the tumor was excised and weighed, from which the average tumor weight ratio between the test group and the control group (T/C) was determined.

[2] = test system: Ehrlich ascites carcinoma; test: Inhibition of Ehrlich solid tumor in mice, intraperitoneal administration (Table 1); format: in vivo, ddY mice; set-up: response vs control in vivo: dose or concentration left out as unconfirmed; details: for response vs control in vivo: day 14
Procedure: as §1
Ehrlich ascites carcinoma was subcutaneously inoculated into the right inguinal region of ddY mice (5 weeks old, male, 8 mice per group) with 3×10^6 cells per mouse.
24 Hours after the inoculation, a test drug suspended or dissolved in 5% HCO 60 (a product manufactured by Nikkol) was administered intraperitoneally successively once daily for 7 days. To the control group, the same quantity as above of 5% HCO 60 was intraperitoneally administered in the same manner. Fourteen days after the inoculation, the tumor was excised and weighed, from which the average tumor weight ratio between the test group and the control group (T/C) was determined.

[3] = test system: Sarcoma-180 ascites tumor; test: Inhibition of Sarcoma-180 ascites tumor in mice, intravenous administration (Table 3); format: in vivo, ddY mice; details: for T/C (average tumor weight ratio between test group and control group): Sarcoma-180, day 10
Procedure: 2. Experiment on the inhibition of Sarcoma-180 ascites tumor
Sarcoma-180 ascites tumor was subcutaneously inoculated into the right inguinal region of ddY mice (5 weeks old, male, 8 mice per group) with 3×10^6 cells per mouse. Twenty four hours after the inoculation,a test drug dissolved in 10% polyethylene glycol was administered intravenously to the test group successively once daily for 7 days, while the same quantity as above of 10% polyethylene glycol was intravenously administered to the control group. Ten days after the inoculation, the tumor was excised and weighed, from which the average tumor weight ratio between the test group and the control group (T/C) was determined.

[4] = test system: Ehrlich ascites carcinoma; test: Carcinostatic test, oral, ED values (Table 5); format: in vivo, ddY mice; details: Mus musculus, 336 h
Procedure: Ehrlich ascites carcinoma was subcutaneously inoculated into the right inguinal region of ddY mice (5 weeks old, male, 8 mice per group) with 8×10^6 cells per mouse. Twenty four hours after the inoculation,5, 10, 20 or 40 mg/kg of a test drug suspended or dissolved in polyethylene glycol was administered orally to the test group successively once daily for 10 days, while the same quantity as above of 10% polyethylene glycol was administered orally to the control group. Fourteen days after the inoculation, the tumor was excised and weighed, from which the average tumor weight ratio between the test group and the control group (T/C) was calculated. ED value was determined by the least square method.

[5] = Acute toxicity test (b), oral LD50 (Table 4); details: mouse, in vivo
Procedure: (b) The test compound was suspended in 0.25% CMC solution and administered orally to SLC-ddY mice (5 weeks old, male, 6 mice per group). The number of dead mice was counted over the subsequent 3 weeks. LD50 value was calculated according to the method of Van der Waerden.

SLC-ddY mice = details: mouse, in vivo
Text: (a) The test compound was suspended in 0.25% CMC solution and administered intraperitoneally to SLC-ddY mice (5 weeks old, male, 6 mice per group). The number of dead mice was counted over the subsequent three weeks.

[6] = 5 mg/kg i.v. once daily for 7 days
[7] = oral, 3 weeks, Van der Waerden method
[8] = 60 mg/kg orally once daily for 10 days
[9] = 60 mg/kg orally once daily for 10 days from day 6, Ehrlich
[10] = 40 mg/kg i.p. once daily for 7 days
[11] = Mus musculus, ip, 336 h, Ehrlich, read-out: T/C (average tumor weight ratio between test group and control group)
[12] = 10 mg/kg i.v. once daily for 7 days
[13] = oral once daily for 10 days, least square method, read-out: ED30
[14] = oral once daily for 10 days, least square method, read-out: ED40

| Structure (SMILES) | Body weight change [2, 10] | response vs control in vivo [2, 11] [%] | also measured |
| --- | --- | --- | --- |
| O=c1[nH]cc(F)c(=O)[nH]1 [5-Fu, 5-fluorouracil, reference compound] | – | – | Body weight change ([1]; 30 mg/kg orally once daily for 10 days): -3.8 g; T/C (average tumor weight ratio between test group and control group) ([1]; 30 mg/kg orally once daily for 10 days from day 6, Ehrlich): 39.7%; Body weight change ([2]; 20 mg/kg i.p. once daily for 7 days): +4.1 g; response vs control in vivo at 20 mg/kg ([2]; Mus musculus, Ehrlich, ip, 336 h, read-out: T/C (average tumor weight ratio between test group and control group)): 49.9%; Body weight change [3, 6]: +4.0 g; No. of surviving mice/No. of total mice used [3, 6]: 8/8; T/C (average tumor weight ratio between test group and control group) [3, 6]: 59.7%; ED30 ([4]; po): 15 mg/kg; ED40 ([4]; po): 25 mg/kg; LD50 at 504 h [5, 7]: 259 mg/kg |
| O=C(c1ccc(F)cc1)n1c(=O)c(F)cn([C@H]2C[C@H](O)[C@@H](CO)O2)c1=O [compound 2] | +6.8 g | 23.2 | Body weight change [1, 8]: -0.4 g; T/C (average tumor weight ratio between test group and control group) [1, 9]: 36.8%; Body weight change [3, 12]: +4.1 g; No. of surviving mice/No. of total mice used [3, 12]: 8/8; T/C (average tumor weight ratio between test group and control group) [3, 12]: 46.2%; ED30 [4, 13]: 11 mg/kg; ED40 [4, 14]: 20 mg/kg; LD50 at 504 h ([5]; po): 2070 mg/kg; Number of dead mice (SLC-ddY mice): no dead mice |
| O=C(CCl)Nc1cccc(C(=O)n2c(=O)c(F)cn([C@H]3C[C@H](O)[C@@H](CO)O3)c2=O)c1 [compound 4] | +4.4 g | 25.2 | – |
| O=C(CCl)Nc1ccc(C(=O)n2c(=O)c(F)cn([C@H]3C[C@H](O)[C@@H](CO)O3)c2=O)cc1 [compound 5] | +4.8 g | 27.5 | Body weight change [1, 8]: -4.1 g; T/C (average tumor weight ratio between test group and control group) [1, 9]: 34.0% |
| Cc1ccccc1C(=O)n1c(=O)c(F)cn([C@H]2C[C@H](O)[C@@H](CO)O2)c1=O [compound 6] | +7.3 g | 32.3 | – |
| O=C(c1ccccc1Cl)n1c(=O)c(F)cn([C@H]2C[C@H](O)[C@@H](CO)O2)c1=O [compound 7] | +6.0 g | 33.1 | – |
| O=C(c1ccccc1I)n1c(=O)c(F)cn([C@H]2C[C@H](O)[C@@H](CO)O2)c1=O [compound 8] | +7.6 g | 33.5 | – |
| O=C(c1cccc2ccccc12)n1c(=O)c(F)cn([C@H]2C[C@H](O)[C@@H](CO)O2)c1=O [compound 9] | +6.7 g | 33.5 | – |
| COc1cc(N)c(Cl)cc1C(=O)n1c(=O)c(F)cn([C@H]2C[C@H](O)[C@@H](CO)O2)c1=O [compound 10] | +7.3 g | 34.2 | – |
| O=C(c1cccc(Cl)c1)n1c(=O)c(F)cn([C@H]2C[C@H](O)[C@@H](CO)O2)c1=O [compound 11] | +7.6 g | 34.3 | Number of dead mice (SLC-ddY mice): no dead mice |
| COC(=O)c1ccc(C(=O)n2c(=O)c(F)cn([C@H]3C[C@H](O)[C@@H](CO)O3)c2=O)cc1 [compound 12] | +6.2 g | 36.9 | – |
| N#Cc1ccc(C(=O)n2c(=O)c(F)cn([C@H]3C[C@H](O)[C@@H](CO)O3)c2=O)cc1 [compound 13] | +7.2 g | 36.9 | Number of dead mice (SLC-ddY mice): no dead mice |
| O=Cc1ccc(C(=O)n2c(=O)c(F)cn([C@H]3C[C@H](O)[C@@H](CO)O3)c2=O)cc1 [compound 14] | +7.1 g | 38.1 | – |
| O=C(c1ccco1)n1c(=O)c(F)cn([C@H]2C[C@H](O)[C@@H](CO)O2)c1=O [compound 15] | +7.9 g | 39.1 | – |
| Cc1ccsc1C(=O)n1c(=O)c(F)cn([C@H]2C[C@H](O)[C@@H](CO)O2)c1=O [compound 16] | +6.4 g | 40.7 | – |
| O=C(c1cc(O)cc(O)c1)n1c(=O)c(F)cn([C@H]2C[C@H](O)[C@@H](CO)O2)c1=O [compound 17] | +7.9 g | 41 | – |
| COc1cccc(OC)c1C(=O)n1c(=O)c(F)cn([C@H]2C[C@H](O)[C@@H](CO)O2)c1=O [compound 18] | +7.8 g | 41.5 | Number of dead mice (SLC-ddY mice): no dead mice |
| O=C(c1ccc([N+](=O)[O-])cc1)n1c(=O)c(F)cn([C@H]2C[C@H](O)[C@@H](CO)O2)c1=O [compound 19] | +5.9 g | 41.5 | – |
| O=C(c1ccccc1F)n1c(=O)c(F)cn([C@H]2C[C@H](O)[C@@H](CO)O2)c1=O [compound 20] | +7.4 g | 42.8 | – |
| CN(C)c1ccc(C(=O)n2c(=O)c(F)cn([C@H]3C[C@H](O)[C@@H](CO)O3)c2=O)cc1 [compound 21] | +4.7 g | 32.4 | LD50 at 504 h [5, 7]: ≥ 2540 mg/kg |
| O=C(Nc1ccc(C(=O)n2c(=O)c(F)cn([C@H]3C[C@H](O)[C@@H](CO)O3)c2=O)cc1)C(Cl)Cl [compound 22] | +6.5 g | 41.6 | – |
| O=C(c1cc(Br)cs1)n1c(=O)c(F)cn([C@H]2C[C@H](O)[C@@H](CO)O2)c1=O [compound 23] | +5.3 g | 38.8 | – |
| O=C(c1ccc(Br)o1)n1c(=O)c(F)cn([C@H]2C[C@H](O)[C@@H](CO)O2)c1=O [compound 24] | +4.7 g | 42.5 | – |
| O=C(c1cccc(C(F)(F)F)c1)n1c(=O)c(F)cn([C@H]2C[C@H](O)[C@@H](CO)O2)c1=O [compound 25] | +5.3 g | 43 | – |
| O=C(CBr)Nc1ccc(C(=O)n2c(=O)c(F)cn([C@H]3C[C@H](O)[C@@H](CO)O3)c2=O)cc1 [compound 26] | +2.3 g | 35.3 | – |
| O=C(c1ccc2c(c1)OCO2)n1c(=O)c(F)cn([C@H]2C[C@H](O)[C@@H](CO)O2)c1=O [compound 27] | +6.4 g | 27.1 | Body weight change [1, 8]: -0.5 g; T/C (average tumor weight ratio between test group and control group) [1, 9]: 30%; Body weight change [3, 12]: +4.0 g; No. of surviving mice/No. of total mice used [3, 12]: 8/8; T/C (average tumor weight ratio between test group and control group) [3, 12]: 45.3%; ED30 [4, 13]: 6.4 mg/kg; ED40 [4, 14]: 12 mg/kg; LD50 at 504 h ([5]; po): ≥ 2290 mg/kg; Number of dead mice (SLC-ddY mice): no dead mice |
| O=C(c1ccc(F)cc1F)n1c(=O)c(F)cn([C@H]2C[C@H](O)[C@@H](CO)O2)c1=O [compound 28] | +5.9 g | 21.7 | – |
| O=C(c1c(F)cccc1F)n1c(=O)c(F)cn([C@H]2C[C@H](O)[C@@H](CO)O2)c1=O [compound 29] | +7.9 g | 41.3 | – |
| CC(=O)OC[C@H]1O[C@@H](n2cc(F)c(=O)n(C(=O)c3ccc4c(c3)OCO4)c2=O)C[C@@H]1OC(C)=O [compound 30] | +6.1 g | 30.1 | – |
